Reference: ChEMBL document CHEMBL3045388, “Sensitivity of Podosphaera aphanis isolates to DMI fungicides: distribution and reduced cross-sensitivity” (Pest Manag Sci, 2010)
Values after ≈ are worked out from the molar mass of the structure shown.

How the values were obtained:
Format in all cases: functional, organism-based
Podosphaera aphanis [1] = experiment: Antifungal activity against Podosphaera aphanis isolate SOU in Darselect leaf disks after 8 days; conditions: 192 h
Podosphaera aphanis [2] = experiment: Antifungal activity against Podosphaera aphanis isolate BRA in Darselect leaf disks after 8 days; conditions: 192 h
Podosphaera aphanis [3] = experiment: Antifungal activity against Podosphaera aphanis isolate DOU in Darselect leaf disks after 8 days; conditions: 192 h
Podosphaera aphanis [4] = experiment: Antifungal activity against Podosphaera aphanis isolate MEG in Darselect leaf disks after 8 days; conditions: 192 h
Podosphaera aphanis [5] = experiment: Antifungal activity against Podosphaera aphanis isolate PES in Darselect leaf disks after 8 days; conditions: 192 h
Podosphaera aphanis [6] = experiment: Antifungal activity against Podosphaera aphanis isolate SOC in Darselect leaf disks after 8 days; conditions: 192 h
Podosphaera aphanis [7] = experiment: Antifungal activity against Podosphaera aphanis isolate LBP in Darselect leaf disks after 8 days; conditions: 192 h
Podosphaera aphanis [8] = experiment: Antifungal activity against Podosphaera aphanis isolate LI1 in Darselect leaf disks after 8 days; conditions: isolate LI1, 192 h
Podosphaera aphanis [9] = experiment: Antifungal activity against Podosphaera aphanis isolate BRE in Darselect leaf disks after 8 days; conditions: 192 h
Podosphaera aphanis [10] = experiment: Antifungal activity against Podosphaera aphanis isolate SIL in Darselect leaf disks after 8 days; conditions: 192 h
Podosphaera aphanis [11] = experiment: Antifungal activity against Podosphaera aphanis isolate ABA in Darselect leaf disks after 8 days; conditions: 192 h
Podosphaera aphanis [12] = experiment: Antifungal activity against Podosphaera aphanis isolate CAM in Darselect leaf disks after 8 days; conditions: 192 h
Podosphaera aphanis [13] = experiment: Antifungal activity against Podosphaera aphanis isolate VIR in Darselect leaf disks after 8 days; conditions: 192 h
Podosphaera aphanis [14] = experiment: Antifungal activity against Podosphaera aphanis isolate ART in Darselect leaf disks after 8 days; conditions: 192 h
Podosphaera aphanis [15] = experiment: Antifungal activity against Podosphaera aphanis isolate SOD in Darselect leaf disks after 8 days; conditions: 192 h
Podosphaera aphanis [16] = experiment: Antifungal activity against Podosphaera aphanis isolate HOR in Darselect leaf disks after 8 days; conditions: 192 h
Podosphaera aphanis [17] = experiment: Antifungal activity against Podosphaera aphanis isolate SAG in Darselect leaf disks after 8 days; conditions: 192 h
Podosphaera aphanis [18] = experiment: Antifungal activity against Podosphaera aphanis isolate AVI in Darselect leaf disks after 8 days; conditions: 192 h
Podosphaera aphanis [19] = experiment: Antifungal activity against Podosphaera aphanis isolate GUI in Darselect leaf disks after 8 days; conditions: 192 h
Podosphaera aphanis [20] = experiment: Antifungal activity against Podosphaera aphanis isolate MEP in Darselect leaf disks after 8 days; conditions: 192 h
Podosphaera aphanis [21] = experiment: Antifungal activity against Podosphaera aphanis isolate PAJ in Darselect leaf disks after 8 days; conditions: 192 h
Podosphaera aphanis [22] = experiment: Antifungal activity against Podosphaera aphanis isolate MAR in Darselect leaf disks after 8 days; conditions: 192 h
Podosphaera aphanis [23] = experiment: Antifungal activity against Podosphaera aphanis isolate DAR1 in Darselect leaf disks after 8 days; conditions: isolate DAR1, 192 h
Podosphaera aphanis [24] = experiment: Antifungal activity against Podosphaera aphanis isolate DAR18 in Darselect leaf disks after 8 days; conditions: isolate DAR18, 192 h

How did the EC50 (Podosphaera aphanis [1]) turn out when `CCCCC(C#N)(Cn1cncn1)c1ccc(Cl)cc1` (centres undefined) [MYCLOBUTANIL] was run?
The EC50 was 10 µg/mL (≈ 34.6 µM).

And the MIC (Podosphaera aphanis [1])?
The MIC was 23 µg/mL (≈ 79.6 µM).

And the EC50 (Podosphaera aphanis [2])?
Its EC50 is 1.3 µg/mL (≈ 4.5 µM).

What about the MIC (Podosphaera aphanis [2]) of the same compound?
Its MIC is 3 µg/mL (≈ 10.4 µM).

And the EC50 (Podosphaera aphanis [3])?
Its EC50 is 8.9 µg/mL (≈ 30.8 µM).

What about the MIC (Podosphaera aphanis [3]) of the same compound?
Its MIC is 15.5 µg/mL (≈ 53.7 µM).

What about the EC50 (Podosphaera aphanis [4]) of the same compound?
Its EC50 is 1 µg/mL (≈ 3.46 µM).

And the MIC (Podosphaera aphanis [4])?
The MIC was 2.35 µg/mL (≈ 8.14 µM).

And the EC50 (Podosphaera aphanis [5])?
Its EC50 is under 0.1 µg/mL.

What about the MIC (Podosphaera aphanis [5]) of the same compound?
The MIC was under 0.1 µg/mL.

And the EC50 (Podosphaera aphanis [6])?
Its EC50 is 6.45 µg/mL (≈ 22.3 µM).

And the MIC (Podosphaera aphanis [6])?
Its MIC is 26 µg/mL (≈ 90 µM).

What about the EC50 (Podosphaera aphanis [7]) of the same compound?
The EC50 was 4.8 µg/mL (≈ 16.6 µM).

What about the MIC (Podosphaera aphanis [7]) of the same compound?
Its MIC is 12.5 µg/mL (≈ 43.3 µM).

And the EC50 (Podosphaera aphanis [8])?
Its EC50 is 3.6 µg/mL (≈ 12.5 µM).

And the MIC (Podosphaera aphanis [8])?
The MIC was 8.5 µg/mL (≈ 29.4 µM).

What about the EC50 (Podosphaera aphanis [9]) of the same compound?
The EC50 was 5.3 µg/mL (≈ 18.4 µM).

And the MIC (Podosphaera aphanis [9])?
The MIC was 13.7 µg/mL (≈ 47.4 µM).

And the EC50 (Podosphaera aphanis [10])?
The EC50 was 2 µg/mL (≈ 6.93 µM).

And the MIC (Podosphaera aphanis [10])?
The MIC was 6.5 µg/mL (≈ 22.5 µM).

And the EC50 (Podosphaera aphanis [11])?
Its EC50 is 3.75 µg/mL (≈ 13 µM).

And the MIC (Podosphaera aphanis [11])?
The MIC was 9 µg/mL (≈ 31.2 µM).

What about the EC50 (Podosphaera aphanis [12]) of the same compound?
Its EC50 is 2.6 µg/mL (≈ 9 µM).

And the MIC (Podosphaera aphanis [12])?
Its MIC is 5.5 µg/mL (≈ 19 µM).

And the EC50 (Podosphaera aphanis [13])?
The EC50 was 1.8 µg/mL (≈ 6.23 µM).

What about the MIC (Podosphaera aphanis [13]) of the same compound?
The MIC was 5 µg/mL (≈ 17.3 µM).

And the EC50 (Podosphaera aphanis [14])?
Its EC50 is 3.9 µg/mL (≈ 13.5 µM).

And the MIC (Podosphaera aphanis [14])?
Its MIC is 10.7 µg/mL (≈ 37.1 µM).

And the EC50 (Podosphaera aphanis [15])?
The EC50 was 13.1 µg/mL (≈ 45.4 µM).

And the MIC (Podosphaera aphanis [15])?
Its MIC is 21.5 µg/mL (≈ 74.5 µM).

What about the EC50 (Podosphaera aphanis [16]) of the same compound?
Its EC50 is 4.25 µg/mL (≈ 14.7 µM).

What about the MIC (Podosphaera aphanis [16]) of the same compound?
The MIC was 10.8 µg/mL (≈ 37.2 µM).

What about the EC50 (Podosphaera aphanis [17]) of the same compound?
Its EC50 is 1.7 µg/mL (≈ 5.89 µM).

What about the MIC (Podosphaera aphanis [17]) of the same compound?
Its MIC is 5.33 µg/mL (≈ 18.5 µM).

What about the EC50 (Podosphaera aphanis [18]) of the same compound?
The EC50 was 0.5 µg/mL (≈ 1.73 µM).

And the MIC (Podosphaera aphanis [18])?
The MIC was 2 µg/mL (≈ 6.93 µM).

What about the EC50 (Podosphaera aphanis [19]) of the same compound?
The EC50 was 1.15 µg/mL (≈ 3.98 µM).

And the MIC (Podosphaera aphanis [19])?
Its MIC is 2.35 µg/mL (≈ 8.14 µM).

What about the EC50 (Podosphaera aphanis [20]) of the same compound?
Its EC50 is 0.8 µg/mL (≈ 2.77 µM).

What about the MIC (Podosphaera aphanis [20]) of the same compound?
The MIC was 3 µg/mL (≈ 10.4 µM).

What about the EC50 (Podosphaera aphanis [21]) of the same compound?
The EC50 was 3 µg/mL (≈ 10.4 µM).

And the MIC (Podosphaera aphanis [21])?
Its MIC is 6.9 µg/mL (≈ 23.9 µM).

And the EC50 (Podosphaera aphanis [22])?
Its EC50 is 5.5 µg/mL (≈ 19 µM).

And the MIC (Podosphaera aphanis [22])?
The MIC was 16 µg/mL (≈ 55.4 µM).

And the EC50 (Podosphaera aphanis [23])?
The EC50 was 4.75 µg/mL (≈ 16.4 µM).

And the MIC (Podosphaera aphanis [23])?
The MIC was 15 µg/mL (≈ 51.9 µM).

And the EC50 (Podosphaera aphanis [24])?
The EC50 was 14.7 µg/mL (≈ 50.8 µM).

What about the MIC (Podosphaera aphanis [24]) of the same compound?
The MIC was 31 µg/mL (≈ 107 µM).

For `CCCC(Cn1cncn1)c1ccc(Cl)cc1Cl` (centres undefined) [PENCONAZOLE], which EC50 (Podosphaera aphanis [1]) is on record?
The EC50 was 2.1 µg/mL (≈ 7.39 µM).

What about the MIC (Podosphaera aphanis [1]) of the same compound?
The MIC was 9.8 µg/mL (≈ 34.5 µM).

What about the EC50 (Podosphaera aphanis [2]) of the same compound?
Its EC50 is 1.48 µg/mL (≈ 5.21 µM).

What about the MIC (Podosphaera aphanis [2]) of the same compound?
The MIC was 2.6 µg/mL (≈ 9.15 µM).

What about the EC50 (Podosphaera aphanis [3]) of the same compound?
Its EC50 is 1.3 µg/mL (≈ 4.57 µM).

What about the MIC (Podosphaera aphanis [3]) of the same compound?
Its MIC is 2 µg/mL (≈ 7.04 µM).

And the EC50 (Podosphaera aphanis [4])?
The EC50 was 0.43 µg/mL (≈ 1.51 µM).

What about the MIC (Podosphaera aphanis [4]) of the same compound?
The MIC was 1 µg/mL (≈ 3.52 µM).

What about the EC50 (Podosphaera aphanis [5]) of the same compound?
The EC50 was 0.04 µg/mL (≈ 0.141 µM).

And the MIC (Podosphaera aphanis [5])?
Its MIC is 0.15 µg/mL (≈ 0.528 µM).

What about the EC50 (Podosphaera aphanis [6]) of the same compound?
Its EC50 is 3.2 µg/mL (≈ 11.3 µM).

And the MIC (Podosphaera aphanis [6])?
The MIC was 7.9 µg/mL (≈ 27.8 µM).

And the EC50 (Podosphaera aphanis [7])?
Its EC50 is 4.2 µg/mL (≈ 14.8 µM).

What about the MIC (Podosphaera aphanis [7]) of the same compound?
Its MIC is 9.5 µg/mL (≈ 33.4 µM).

And the EC50 (Podosphaera aphanis [8])?
The EC50 was 2.45 µg/mL (≈ 8.62 µM).

And the MIC (Podosphaera aphanis [8])?
Its MIC is 5.15 µg/mL (≈ 18.1 µM).

And the EC50 (Podosphaera aphanis [9])?
Its EC50 is 1.9 µg/mL (≈ 6.69 µM).

And the MIC (Podosphaera aphanis [9])?
The MIC was 6 µg/mL (≈ 21.1 µM).

What about the EC50 (Podosphaera aphanis [10]) of the same compound?
The EC50 was 0.4 µg/mL (≈ 1.41 µM).

And the MIC (Podosphaera aphanis [10])?
Its MIC is 1 µg/mL (≈ 3.52 µM).

What about the EC50 (Podosphaera aphanis [11]) of the same compound?
The EC50 was 1.25 µg/mL (≈ 4.4 µM).

And the MIC (Podosphaera aphanis [11])?
Its MIC is 2.85 µg/mL (≈ 10 µM).

And the EC50 (Podosphaera aphanis [12])?
Its EC50 is 0.9 µg/mL (≈ 3.17 µM).

And the MIC (Podosphaera aphanis [12])?
The MIC was 2.5 µg/mL (≈ 8.8 µM).

And the EC50 (Podosphaera aphanis [13])?
Its EC50 is 2 µg/mL (≈ 7.04 µM).

What about the MIC (Podosphaera aphanis [13]) of the same compound?
The MIC was 5 µg/mL (≈ 17.6 µM).

And the EC50 (Podosphaera aphanis [14])?
The EC50 was 2.2 µg/mL (≈ 7.74 µM).

And the MIC (Podosphaera aphanis [14])?
Its MIC is 6.6 µg/mL (≈ 23.2 µM).

What about the EC50 (Podosphaera aphanis [16]) of the same compound?
Its EC50 is 0.8 µg/mL (≈ 2.82 µM).

What about the MIC (Podosphaera aphanis [16]) of the same compound?
The MIC was 2 µg/mL (≈ 7.04 µM).

What about the EC50 (Podosphaera aphanis [17]) of the same compound?
The EC50 was 0.28 µg/mL (≈ 0.985 µM).

And the MIC (Podosphaera aphanis [17])?
The MIC was 0.5 µg/mL (≈ 1.76 µM).

And the EC50 (Podosphaera aphanis [18])?
Its EC50 is 0.58 µg/mL (≈ 2.04 µM).

What about the MIC (Podosphaera aphanis [18]) of the same compound?
Its MIC is 1.8 µg/mL (≈ 6.33 µM).

What about the EC50 (Podosphaera aphanis [19]) of the same compound?
Its EC50 is 0.9 µg/mL (≈ 3.17 µM).

What about the MIC (Podosphaera aphanis [19]) of the same compound?
Its MIC is 2.1 µg/mL (≈ 7.39 µM).

What about the EC50 (Podosphaera aphanis [20]) of the same compound?
Its EC50 is 0.3 µg/mL (≈ 1.06 µM).

What about the MIC (Podosphaera aphanis [20]) of the same compound?
Its MIC is 0.8 µg/mL (≈ 2.82 µM).

And the EC50 (Podosphaera aphanis [21])?
The EC50 was 2.9 µg/mL (≈ 10.2 µM).

And the MIC (Podosphaera aphanis [21])?
Its MIC is 3.9 µg/mL (≈ 13.7 µM).

What about the EC50 (Podosphaera aphanis [22]) of the same compound?
Its EC50 is 2.55 µg/mL (≈ 8.97 µM).

And the MIC (Podosphaera aphanis [22])?
The MIC was 10 µg/mL (≈ 35.2 µM).

What about the EC50 (Podosphaera aphanis [23]) of the same compound?
The EC50 was 2 µg/mL (≈ 7.04 µM).

What about the MIC (Podosphaera aphanis [23]) of the same compound?
The MIC was 3 µg/mL (≈ 10.6 µM).

And the EC50 (Podosphaera aphanis [24])?
The EC50 was 3.5 µg/mL (≈ 12.3 µM).

And the MIC (Podosphaera aphanis [24])?
The MIC was 9 µg/mL (≈ 31.7 µM).
